From patent US9744244B2, “Amphipathic peptide” (The Queen's University of Belfast, priority 2012, dated 2017)
Where no end group is shown, it is not given here.

Experiments:
[1] = test system: ZR-75-1 cells; assay: Transfection of ZR-75-1 cells, GFP expression by flow cytometry; type: cell-based
Description: In order to test the RALA in vitro, small scale transfections were performed carried out. 5×10^4 cells were seeded onto each well of a 96 well plate and the cells incubated under with complete medium standard conditions for 48 hours. The medium was subsequently removed from the plates and 100 μl of transfection medium (Optimem Invitrogen, UK) was added to each well. Cells were incubated for 2 hours at 37° C. and 5% CO2 standard conditions. In the meanwhile complexes were made up using 1 μg of plasmid DNA with the RALA vector and added to the cells when the two hours had passed. 100 μl of the each N:P ratio were added to each well of the cells. Cells were then incubated for a further 4 hours under standard conditions and the medium with RPMI-1640 supplemented with +10% FCS. (FIG. 4, 31 (+Chloroquine), 32 (+Bafilomycin), 33 (+KALA NPs), 34 (+Lipofectamine), 35).
ZR-75-1 & PC-3 cells that were transfected with RALA/pEGFP-N1 complexes were trypsinised and washed twice with 2% formaldehyde in phosphate buffered saline. The expression of green fluorescent protein was measured by flow cytometry using FACS calibur system (BD Bioscience, UK). The data was analysed using the Flo-Jo software program and fluorescent intensity is reported at 4% gating. (FIG. 7b, 11, 31, 32, 33, 34, 35, 57 (+RAT/pEGFP-N1)).

[2] = Nanoparticle size and charge analysis (DLS, Laser Doppler Velocimetry, Malvern Zetasizer); type: physicochemical
Description: In order to obtain particle size and charge distributions the mean hydrodynamic particle size measurements RALA complexes were performed using Dynamic Light Scattering (DLS). Dynamic Light Scattering is based upon the principle that when particles are illuminated with a laser, due to Brownian motion there will be scattering of the light. The intensity of the scattered light fluctuates as a result of this Brownian motion caused by bombardment of the particles by solvent molecules. A correlation curve reflecting the decay rate is generated based on fluctuations of the scattered light where a slower correlation decay rate represents a slower moving particle. Based on the Stokes-Einstein equation larger particles move more slowly and, thus, the correlation function can be used to determine the size distribution of the particles. dynamic light scattering (DLS) was used.
Surface charge measurements of the RALA nanoparticles were determined by Laser Doppler Velocimetry. The zeta potential of the particles was measured using disposable foltable zeta cuvettes. […]
The nanoparticles were made up at an appropriate range of N:P ratios with at least using 2 μg of DNA in each sample. Nanoparticles were analysed using either and analysis was completed on either the Zetasizer-HS3000 (Malvern Instruments) or the Zetasizer-Nano instrument with DTS software (Malvern Instruments, UK). […]

[3] = test system: C57/BL6 mice; assay: Immune response on repeated administration (ELISA, Greiss test on serum); type: in vivo; conditions: first week, compared with PEI only

Sequence	ability to transfect cells [1]	ability to condense DNA into nanoparticles [2]	initial TNFα response [3]
WEARLARALARALARHLRACEA (22mer protein sequence (Table 2)) [Peptide 22mer, comparative peptide]	unable to condense DNA into nanoparticles and transfect cells	unable to condense DNA into nanoparticles	–
WEARLARALARALARHLARALARALRACEA [RALA]	–	–	significantly lower initial response of TNFα than the PEI only treated animals
